This note sets out measurements from PMC12957839, “Antiviral activity and mechanism of purine morpholine nucleoside analogues incorporating a sulfonamide fragment” (Journal of Advanced Research, 2025).

Holding throughout (format): in vivo, Pepper mild mottle virus (PMMoV)
Assay [1] relates to PMMoV. The assay can be described thus: Antiviral activity assay against PMMoV, curative activity. Details: Curative activity: concentration or dose not given beside the values. The note with it: against PMMoV, average of three replicates, ± standard deviation; for EC50: Pepper mild mottle virus, read-out: EC50 of curative activity. Here is the method: (§1) Virions were isolated and extracted from leaves of N. benthamiana infected with PMMoV referring to the method recorded in the literature. And the inhibiting activities of C1–C38 against PMMoV were assessed with reference to the literature as well [26, 34].

In assay [2] the test system is PMMoV. The assay can be described thus: Antiviral activity assay against PMMoV, protective activity. More on the design: Protective activity: concentration or dose not given beside the values. As to conditions: against PMMoV, average of three replicates, ± standard deviation; for EC50: Pepper mild mottle virus, read-out: EC50 of protective activity. As to the method:
as §1

Assay [3] concerns PMMoV. The experiment in a line: Antiviral activity assay against PMMoV, inactivating activity. As to conditions: against PMMoV, average of three replicates, ± standard deviation; for pest or weed control at 500 µg/mL / EC50: Pepper mild mottle virus; for pest or weed control at 500 µg/mL: read-out: Inactivating activity; for EC50: read-out: EC50 of inactivating activity. As to the method: as §1

SMILES strings stand for the structures. Converted amounts (≈) assume the structure as drawn.

As for `CC(=O)OCC1OC(n2cnc3c(N4CCOCC4)nc(Cl)nc32)C(NS(=O)(=O)c2ccc(C(F)(F)F)cc2)C(OC(C)=O)C1OC(C)=O` (stereo not shown) [C27], in the assay on PMMoV [1], the EC50 is 51.1 ± 3.6 µg/mL (≈ 69.5 µM) and the Curative activity is reported as 69.9 ± 3.6%. In addition, in the assay on PMMoV [2], the EC50 was found to be 534 ± 14.9 µg/mL (≈ 726 µM) and the Protective activity is 45.0 ± 3.4%. In addition, the pest or weed control at 500 µg/mL with PMMoV [3] (at 500 µg/mL) is 62.4 ± 4.7%. Besides, the 50% effective concentration (EC50) in the assay on PMMoV [3] was 184 ± 10 µg/mL (≈ 251 µM).
On to `CC(=O)OCC1OC(n2cnc3c(N4CCOCC4)nc(F)nc32)C(NS(=O)(=O)c2ccc(OC(F)(F)F)cc2)C(OC(C)=O)C1OC(C)=O` (stereo not shown) [C34], for which, in the assay on PMMoV [1], the concentration giving a half-maximal response (EC50) was 33.8 ± 4.6 µg/mL (≈ 46 µM) and the Curative activity was found to be 67.4 ± 2.0%. In addition, in the assay on PMMoV [2], the EC50 stood at 53.8 ± 4.8 µg/mL (≈ 73.2 µM) and the Protective activity was determined as 65.6 ± 4.5%. Besides, in the assay with PMMoV [3] (at 500 µg/mL), the pest or weed control at 500 µg/mL was 72.7 ± 2%. In addition, in the assay on PMMoV [3], the EC50 was 53 ± 2.2 µg/mL (≈ 72.1 µM).
Turning to `CC(=O)OCC1OC(n2cnc3c(N4CCOCC4)ncnc32)C(NS(=O)(=O)c2ccccc2)C(OC(C)=O)C1OC(C)=O` (stereo not shown) [C18], in the assay on PMMoV [1], the concentration for a half-maximal effect (EC50) came to 24.7 ± 1.3 µg/mL (≈ 39 µM) and the Curative activity is reported as 63.5 ± 2.5%. Besides, in the assay with PMMoV [2], the concentration for a half-maximal effect (EC50) stood at 994 ± 11.2 µg/mL (≈ 1570 µM) and the Protective activity worked out at 41.9 ± 2.9%. Also, in the assay with PMMoV [3] (at 500 µg/mL), the pest or weed control at 500 µg/mL was 61.3 ± 2.8%. Also, in the assay with PMMoV [3], the EC50 is 134 ± 8.5 µg/mL (≈ 212 µM).
Consider `CC(=O)OCC1OC(n2cnc3c(N4CCOCC4)ncnc32)C(NS(=O)(=O)c2cccc(Cl)c2)C(OC(C)=O)C1OC(C)=O` (stereo not shown) [C10], for which, in the assay with PMMoV [1], the EC50 amounted to 22.2 ± 3.4 µg/mL (≈ 33.3 µM) and the Curative activity is 62.1 ± 5.8%. For the same compound, in the assay with PMMoV [2], the concentration for a half-maximal effect (EC50) amounted to 17.8 ± 2.1 µg/mL (≈ 26.7 µM) and the Protective activity is 67.0 ± 4.3%. For the same compound, in the assay with PMMoV [3] (at 500 µg/mL), the pest or weed control at 500 µg/mL was determined as 60.5% and the Inactivating activity stood at 60.5 ± 1.8%. In addition, the 50% effective concentration (EC50) in the assay with PMMoV [3] was determined as 16.3 ± 1.9 µg/mL (≈ 24.4 µM).
As to `O=S(=O)(NC1C(O)C(O)C(CO)OC1n1cnc2c(N3CCOCC3)nc(F)nc21)c1ccc(OC(F)(F)F)cc1` (stereo not shown) [C38], in the assay on PMMoV [1], the EC50 worked out at 442 ± 12.6 µg/mL (≈ 726 µM) and the Curative activity was 51.54 ± 0.3%. Moreover, in the assay with PMMoV [2], the EC50 turned out to be 474 ± 27.7 µg/mL (≈ 779 µM) and the Protective activity was found to be 46.5 ± 1.0%. Moreover, the pest or weed control at 500 µg/mL in the assay with PMMoV [3] (at 500 µg/mL) was 51.6 ± 0.5%. In the assay on PMMoV [3], the EC50 stood at 421 ± 7.4 µg/mL (≈ 692 µM).
For `CC(=O)OCC1OC(n2cnc3c(N4CCOCC4)nc(Cl)nc32)C(NS(=O)(=O)c2c(C)cc(C)cc2C)C(OC(C)=O)C1OC(C)=O` (stereo not shown) [C23], in the assay on PMMoV [1], the concentration giving a half-maximal response (EC50) is 11.3 ± 3.3 µg/mL (≈ 15.9 µM) and the Curative activity is 69.0 ± 3.5%. Moreover, in the assay on PMMoV [2], the EC50 was determined as 145 ± 7.7 µg/mL (≈ 204 µM) and the Protective activity was determined as 57.4 ± 1.6%. The pest or weed control at 500 µg/mL with PMMoV [3] (at 500 µg/mL) was 55.4 ± 2.6%. Besides, the EC50 in the assay on PMMoV [3] was 240 ± 17.8 µg/mL (≈ 338 µM).
As for `CC(=O)OCC1OC(n2cnc3c(N4CCOCC4)nc(Cl)nc32)C(NS(=O)(=O)c2ccccc2)C(OC(C)=O)C1OC(C)=O` (stereo not shown) [C20], the EC50 with PMMoV [1] turned out to be 30.1 ± 3.5 µg/mL (≈ 45.1 µM); with PMMoV [2], 292 ± 17.6 µg/mL (≈ 438 µM); in the assay with PMMoV [3] it was 28.5 ± 4.2 µg/mL (≈ 42.7 µM). The Curative activity in the assay on PMMoV [1] is 74.8 ± 4.8%. This compound also yielded a Protective activity in the assay on PMMoV [2] of 54.8 ± 2.8%. For the same compound, the pest or weed control at 500 µg/mL in the assay with PMMoV [3] (at 500 µg/mL) came to 72 ± 4.2%.
Regarding `CC(=O)OCC1OC(n2cnc3c(N4CCOCC4)nc(Cl)nc32)C(NS(=O)(=O)c2ccc(C#N)cc2)C(OC(C)=O)C1OC(C)=O` (stereo not shown) [C8], the EC50 is 64.6 ± 4.6 µg/mL (≈ 93.3 µM) in the assay on PMMoV [1], 1040 ± 19.4 µg/mL (≈ 1510 µM) in the assay with PMMoV [2] and 222 ± 4.8 µg/mL (≈ 321 µM) in the assay on PMMoV [3]. For the same compound, the Curative activity in the assay on PMMoV [1] was 69.6 ± 1.3%. In the assay on PMMoV [2], this compound displayed a Protective activity of 44.3 ± 1.8%. Further, the pest or weed control at 500 µg/mL in the assay with PMMoV [3] (at 500 µg/mL) amounted to 56.6 ± 4%.
As for `CC(=O)OCC1OC(n2cnc3c(N4CCOCC4)nc(Cl)nc32)C(NS(=O)(=O)c2ccc([N+](=O)[O-])cc2)C(OC(C)=O)C1OC(C)=O` (stereo not shown) [C4], in the assay on PMMoV [1], the concentration for a half-maximal effect (EC50) was found to be 219 ± 9 µg/mL (≈ 308 µM) and the Curative activity is on record as 61.2 ± 3.7%. Moreover, in the assay with PMMoV [2], the 50% effective concentration (EC50) was 475 ± 15.8 µg/mL (≈ 667 µM) and the Protective activity was 52.6 ± 2.0%. Also, in the assay on PMMoV [3] (at 500 µg/mL), the pest or weed control at 500 µg/mL came out at 64.1 ± 3.5%. The EC50 in the assay on PMMoV [3] stood at 141 ± 12.1 µg/mL (≈ 198 µM).
Take `Cc1ccc(S(=O)(=O)NC2C(O)C(O)C(CO)OC2n2cnc3c(N4CCOCC4)nc(Cl)nc32)cc1` (stereo not shown) [C36]: in the assay on PMMoV [1], the concentration giving a half-maximal response (EC50) is 283 ± 10.5 µg/mL (≈ 510 µM) and the Curative activity is on record as 57.3 ± 1.1%. In the assay on PMMoV [2], the EC50 came out at 562 ± 11.1 µg/mL (≈ 1010 µM) and the Protective activity is given as 52.2 ± 0.8%. In the assay with PMMoV [3] (at 500 µg/mL), the pest or weed control at 500 µg/mL came to 50.6 ± 3.6%. The EC50 in the assay with PMMoV [3] was 313 ± 7.1 µg/mL (≈ 564 µM).
Take `CC(=O)OCC1OC(n2cnc3c(N4CCOCC4)ncnc32)C(NS(=O)(=O)c2c(C)cc(C)cc2C)C(OC(C)=O)C1OC(C)=O` (stereo not shown) [C21]: in the assay on PMMoV [1], the 50% effective concentration (EC50) amounted to 61.6 ± 5.3 µg/mL (≈ 91.3 µM) and the Curative activity is reported as 66.9 ± 1.8%. Further, in the assay on PMMoV [2], the EC50 worked out at 74 ± 5.1 µg/mL (≈ 110 µM) and the Protective activity came to 60.7 ± 2.5%. Besides, in the assay with PMMoV [3] (at 500 µg/mL), the pest or weed control at 500 µg/mL stood at 68.7 ± 4.5%. In addition, the half-maximal effective concentration (EC50) in the assay with PMMoV [3] was determined as 83.2 ± 3.7 µg/mL (≈ 123 µM).

As a reminder, the EC50 is the concentration giving half of the maximal effect.
